# Like-named read-outs stand apart in the source and are kept apart here.
# Legend:
# [1] = system: primary human lung cancer LUF1656 xenograft; type: in vivo; settings: PO, QD × 21 Days; for T/C (%): Day 21; for Tumor Size (mm^3) at Day 21 of Treatment: Mean ± SEM
# Method: The in-vivo antitumor activity of the phosphatidylinositol-3-kinase inhibitor compound COMPOUND B in combination with either the anaplastic lymphoma kinase inhibitor COMPOUND D or crizotinib is evaluated in the treatment of subcutaneous primary human lung cancer LUF1656 xenograft models in nu/nu mice.
# Experiments are performed with female Mus Musculus nu/nu mice (Vital River Laboratories, China) approximately 7-8 weeks of age and 19-24 g body weight at treatment start. All animals are housed in laminar flow rooms at constant temperature (approximately 20-26° C.) and humidity (approximately 40-70%) with 4 or 5 animals in each cage. All animals have free access to irradiation sterilized dry granule food and sterile drinking water. Animals are divided into groups of 10 animals per group.
# COMPOUND B in form of its monohydrochloride salt (Novartis) is obtained as a powder and stored at −20° C. 323.3 mg of COMPOUND B monohydrochoride (equivalent to 294 mg of free base) is formulated in 21 ml of 1% Tween 80 and 21 ml 1% methylcellulose (M-0512). COMPOUND B is first sonicated in the 1% Tween 80 and then mixed with the 1% methylcellulose and then stirred for 1 hour and sonicated for 5 minutes to formulate a solution having a COMPOUND B concentration of 7 mg/ml. For this experiment, the COMPOUND B monohydrochloride salt is referred to as “COMPOUND B”.
# (§1) COMPOUND D in the form of its salt (Novartis) is obtained as a powder and stored at −20° C. 388 mg of COMPOUND D salt (equivalents to 330 mg of free base) is suspended in 33 ml of 0.5% methylcellulose (M-0512) and 0.5% Tween, is sonicated and then is vortexed to formulate a solution having a COMPOUND D concentration of 10 mg/ml. Additionally, 11 ml of this 10 mg/ml concentration solution is diluted with 11 ml 0.5% methylcellulose and 0.5% Tween 80 and vortexted to form a second solution having a COMPOUND D concentration of 5 mg/ml. For this experiment, the COMPOUND D salt is referred to as “COMPOUND D”.
# Crizotinib is obtained as a powder and stored at −20° C. 220 mg of crizotinib is suspended in 22 ml 0.5% methylcellulose (MC) and sonicated to form a solution having a crizotinib concentration of 10 mg/ml. This solution can be stored at 4° C. for 1 week and protected from light.
# Tumor fragments from stock mice inoculated with LUF1656 primary human lung cancer cells (Crown Bio, China) are harvested and used for inoculation into the nu/nu mice. Each mouse is inoculated subcutaneously at the right flank with one tumor fragment (2-3 mm in diameter) for tumor development. The treatments are started when mean tumor size reach approximately 135 mm^3. Animals are routinely monitored and body weight measured twice weekly. Death and observed clinical signs are recorded on the basis of the number of animals within each subset. Animals observed to be in a continuing deteriorating condition or for which the tumor size of individual animal exceeds 1/10 of the body weight are euthanized prior to death or before comatose.
# Tumor size is measured twice weekly in two dimensions using a caliper and the volume is expressed in mm^3 using the formula: V=0.5 a×b^2, wherein a and b are the long and short diameters of the tumor respectively. The tumor size is then used for calculation of both T-C and T/C values. T-C is calculated with T as the time (days) required for the mean tumor size of the treatment group to reach a predetermined size (e.g., 400 mm^3) and C is the time (in days) for the mean tumor size of the control group to reach the same size. T/C value (in percent is an indication of the anti-tumor effectiveness; T and C are the mean volume of the treated and control groups, respectively, on a given day.
# Summary statistics are provided for the tumor volume of each group at each time point.
# [2] = system: primary human lung cancer LU1656 xenograft; test: In-vivo antitumor activity, subcutaneous LU1656 xenograft, first and second phase (Example 3); settings: for T-C (days) at 500 mm^3 / T/C (%) / Tumor Size (mm^3) at Day 50 Post Tumor Implantation / Tumor Size (mm^3) at Day 61 Post Tumor Implantation: p.o.; for Tumor Size (mm^3) at Day 50 Post Tumor Implantation / Tumor Size (mm^3) at Day 61 Post Tumor Implantation: Mean ± SEM
# Method: The in-vivo antitumor activity […] of the phosphatidylinositol-3-kinase inhibitor compound COMPOUND B in combination with either the anaplastic lymphoma kinase inhibitor COMPOUND D or crizotinib and (b) of the phosphatidylinositol-3-kinase inhibitor compound COMPOUND C in combination with either the anaplastic lymphoma kinase inhibitor COMPOUND D or crizotinib is evaluated in the treatment of subcutaneous primary human lung cancer LU1656 xenograft models in nu/nu mice.
# Experiments are performed with female Mus Musculus nu/nu mice (Vital River Laboratories, China) approximately 7-8 weeks of age and 19-24 g body weight at treatment start. All animals are housed in laminar flow rooms at constant temperature (approximately 20-26° C.) and humidity (approximately 40-70%) with 4 or 5 animals in each cage. All animals have free access to irradiation sterilized dry granule food and sterile drinking water.
# Animals are divided into 9 groups.
# COMPOUND B in form of its monohydrochloride salt (Novartis) is obtained as a powder and stored at −20° C. 99.1 mg of COMPOUND B monohydrochoride (equivalent to 91 mg of free base) is formulated in 6.5 ml of 1% Tween 80 and 6.5 ml 1% methylcellulose (M-0512). COMPOUND B is first sonicated in the 1% Tween 80 and then mixed with the 1% methylcellulose and then stirred for 1 hour and sonicated for 5 minutes to formulate a solution having a COMPOUND B concentration of 7 mg/ml. For this experiment, the COMPOUND B monohydrochloride salt is referred to as “COMPOUND B”.
# COMPOUND C is obtained as a powder and stored at 4° C. A vehicle is formulated by dissolving 2 g of CMC sodium salt powder low density in 198 ml of sterile water, mixing using a magnetic beater and heating (about 50° C.), adding 1 ml Tween 80, adjusting the pH to 7.6 using NaOh/HCl, and completing the volume to 200 ml. 84 mg of COMPOUND C is suspended in 3.5 ml of this vehicle and stirred/vortexed until homogenous; another 3.5 ml of this vehicle is added and homogenized; and another 7 ml of this vehicle is added and homogenized. To reduce particle size, this solution is sonicated for 1 hour using a sonication probe while cooling in an ice bath. The solution is having a COMPOUND C concentration of 6 mg/ml.
# as §1
# COMPOUND C is obtained as a powder and stored at 4° C. A vehicle is formulated by dissolving 2 g of CMC sodium salt powder low density in 198 ml of sterile water, mixing using a magnetic beater and heating (about 50° C.), adding 1 ml Tween 80, adjusting the pH to 7.6 using NaOh/HCl, and completing the volume to 200 ml.
# [3] = first phase, Group 4: COMPOUND C 30 mg/kg, QD × 35
# [4] = first phase, Group 3: COMPOUND D 50 mg/kg, QD × 40
# [5] = second phase, Group 8: COMPOUND D 25 mg/kg, QD × 40
# [6] = second phase, Group 9: Crizotinib 50 mg/kg, QD × 40
compound,measurement,setting,value
"Nc1cc(C(F)(F)F)c(-c2cc(N3CCOCC3)nc(N3CCOCC3)n2)cn1 [COMPOUND B, 5-(2,6-di-morpholin-4-yl-pyrimidin-4-yl)-4-trifluoromethyl-pyridin-2-ylamine]",T/C (%),[1]; Group 3: COMPOUND B 35 mg/kg,30.1%
same,Tumor Size (mm^3) at Day 21 of Treatment,[1]; Group 3: COMPOUND B 35 mg/kg,365.4 mm^3
"Cc1nc(NC(=O)N2CCC[C@H]2C(N)=O)sc1-c1ccnc(C(C)(C)C(F)(F)F)c1 [COMPOUND C, (S)-Pyrrolidine-1,2-dicarboxylic acid 2-amide 1-({4-methyl-5-[2-(2,2,2-trifluoro-1,1-dimethyl-ethyl)-pyridin-4-yl]-thiazol-2-yl}-amide)]",antitumor activity against the LU1656 xenograft model (summary),[2]; COMPOUND C at 30 mg/kg as a single agent,significant antitumor activity
same,T-C (days) at 500 mm^3,[2]; [3],11 days
same,T/C (%),"[2]; first phase, Group 4: COMPOUND C 30 mg/kg, QD × 35, Day 50",36.0%
same,Tumor Size (mm^3) at Day 50 Post Tumor Implantation,[2]; [3],752.5 mm^3
"Cc1cc(Nc2ncc(Cl)c(Nc3ccccc3S(=O)(=O)C(C)C)n2)c(OC(C)C)cc1C1CCNCC1 [COMPOUND D, 5-Chloro-N2-(2-isopropoxy-5-methyl-4-piperidin-4-yl-phenyl)-N4-[2-(propane-2-sulfonyl)-phenyl]-pyrimidine-2,4-diamine]",antitumor activity against the LU1656 xenograft model (summary),[2]; COMPOUND D at 25 mg/kg as a single agent,significant antitumor activity
same,antitumor activity against the LU1656 xenograft model (summary),[2]; COMPOUND D at 50 mg/kg as a single agent,significant antitumor activity
same,T-C (days) at 500 mm^3,[2]; [4],40 days
same,T/C (%),"[2]; first phase, Group 3: COMPOUND D 50 mg/kg, QD × 40, Day 50",10.4%
same,Tumor Size (mm^3) at Day 50 Post Tumor Implantation,[2]; [4],218.2 mm^3
same,T-C (days) at 500 mm^3,[2]; [5],34 days
same,T/C (%),"[2]; second phase, Group 8: COMPOUND D 25 mg/kg, QD × 40, Day 61",14.6%
same,Tumor Size (mm^3) at Day 61 Post Tumor Implantation,[2]; [5],307.4 mm^3
same,antitumor activity compared to Crizotinib (50 mg/kg) monotherapy,"[2]; second phase, COMPOUND D 25 mg/kg monotherapy, Day 64 to Day 82, p<0.05 or p<0.01 at different days",significantly improved
same,T/C (%),[1]; Group 7: COMPOUND D 25 mg/kg,16.1%
same,Tumor Size (mm^3) at Day 21 of Treatment,[1]; Group 7: COMPOUND D 25 mg/kg,194.9 mm^3
same,T/C (%),[1]; Group 8: COMPOUND D 50 mg/kg,17.6%
same,Tumor Size (mm^3) at Day 21 of Treatment,[1]; Group 8: COMPOUND D 50 mg/kg,213.6 mm^3
"C[C@@H](Oc1cc(-c2cnn(C3CCNCC3)c2)cnc1N)c1c(Cl)ccc(F)c1Cl [Crizotinib, reference compound]",T-C (days) at 500 mm^3,[2]; [6],14 days
same,T/C (%),"[2]; second phase, Group 9: Crizotinib 50 mg/kg, QD × 40, Day 61",24.7%
same,Tumor Size (mm^3) at Day 61 Post Tumor Implantation,[2]; [6],520.4 mm^3
same,antitumor activity compared with vehicle control,"[2]; second phase, Crizotinib 50 mg/kg, PO, QD×40, Day 47 to Day 61 after tumor implantation, p<0.01 or p<0.001 at different days",significant antitumor activity
same,T-C (days) at 400 mm^3,[1]; Group 6: Crizotinib 50 mg/kg,7 days
same,T/C (%),[1]; Group 6: Crizotinib 50 mg/kg,37.1%
same,Tumor Size (mm^3) at Day 21 of Treatment,"[1]; Group 6: Crizotinib 50 mg/kg, from 9 animals' data (one outlier removed)",450.8 ± mm^3

# Source: patent publication US20160129003A1, “Pharmaceutical Combinations” (Novartis AG, priority 2013, published 2016)
